# pEC50, pIC50: −log10 of the molar value. Counter-ions that a name gives are not always drawn.
# Target: Btk enzyme (His-Btk) (Homo sapiens (Human), UniProt Q06187)
# Experiment: Btk enzyme activity, IMAP fluorescence polarization assay (Assay Method A)
# Conditions: not given
# Chain of Btk enzyme (His-Btk) (Q06187 whole entry): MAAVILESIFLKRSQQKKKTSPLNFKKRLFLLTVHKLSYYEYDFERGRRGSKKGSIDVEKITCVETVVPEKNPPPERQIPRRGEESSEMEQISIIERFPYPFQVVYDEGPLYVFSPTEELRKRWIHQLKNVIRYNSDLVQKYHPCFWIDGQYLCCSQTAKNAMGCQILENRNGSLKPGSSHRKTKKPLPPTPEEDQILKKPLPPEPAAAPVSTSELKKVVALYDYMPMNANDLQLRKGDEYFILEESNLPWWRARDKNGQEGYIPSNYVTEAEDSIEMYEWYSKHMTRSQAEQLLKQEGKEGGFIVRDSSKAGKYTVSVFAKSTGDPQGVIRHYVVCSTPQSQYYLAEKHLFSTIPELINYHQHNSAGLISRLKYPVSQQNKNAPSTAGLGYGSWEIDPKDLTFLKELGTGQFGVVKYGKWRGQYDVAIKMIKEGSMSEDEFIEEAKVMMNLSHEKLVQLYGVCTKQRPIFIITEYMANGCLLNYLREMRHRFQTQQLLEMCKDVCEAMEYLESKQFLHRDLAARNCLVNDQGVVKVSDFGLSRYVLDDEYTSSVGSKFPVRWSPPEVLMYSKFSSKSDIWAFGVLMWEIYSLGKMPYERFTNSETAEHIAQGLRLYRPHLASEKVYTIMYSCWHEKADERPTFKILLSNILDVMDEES
row,SMILES,pEC50
1,"CCC(=O)N1CCC[C@@H](c2nc(-c3ccc(C(=O)Nc4nc5c(s4)CC(C)CC5)cc3)c3c(N)nccn23)C1 (stereo in doubt) [Example 65, (R)-4-(8-amino-3-(1-propionylpiperidin-3-yl)imidazo[1,5-a]pyrazin-1-yl)-N-(6-methyl-4,5,6,7-tetrahydrobenzo[d]thiazol-2-yl)benzamide]",> 8.00
2,"Nc1nccn2c(C3CC4CCC3N4C(=O)C3CCCO3)nc(-c3ccc(C(=O)Nc4ccccn4)cc3)c12 (stereo not shown) [Example 146, 4-(8-amino-3-(7-(tetrahydrofuran-2-carbonyl)-7-azabicyclo[2.2.1]heptan-2-yl)imidazo[1,5-a]pyrazin-1-yl)-N-(pyridin-2-yl)benzamide]",7.00 to 8.00

# Now from value to compound:
row,pEC50,SMILES
1,7.00 to 8.00,"CSCCC(=O)N1C[C@H](c2nc(-c3ccc(C(=O)Nc4cc(C(F)(F)F)ccn4)cc3)c3c(N)nccn23)CC[C@H]1C (relative stereo) [Example 187, 4-(8-amino-3-((trans)-6-methyl-1-(3-(methylthio)propanoyl)piperidin-3-yl)imidazo[1,5-a]pyrazin-1-yl)-N-(4-(trifluoromethyl)pyridin-2-yl)benzamide, TFA salt]"
2,7.00 to 8.00,"CN(C)C1(C(=O)N2CCC[C@@H](c3nc(-c4ccc(C(=O)Nc5cc(C(F)(F)F)ccn5)cc4)c4c(N)nccn34)C2)CCC1 [Example 79, (R)-4-(8-amino-3-(1-(1-(dimethylamino)cyclobutane-carbonyl)piperidin-3-yl)imidazo[1,5-a]pyrazin-1-yl)-N-(4-(trifluoromethyl)pyridin-2-yl)benzamide]"
3,> 8.00,"C=CC1(C(=O)N2CCC[C@@H](c3nc(-c4ccc(C(=O)Nc5cc(C(F)(F)F)ccn5)cc4)c4c(N)nccn34)C2)COC1 [Example 91, (R)-4-(8-amino-3-(1-(3-vinyloxetane-3-carbonyl)piperidin-3-yl)imidazo[1,5-a]pyrazin-1-yl)-N-(4-(trifluoromethyl)pyridin-2-yl)benzamide]"
4,> 8.00,"CC(C)C1CC(C(=O)N2CCC[C@@H](c3nc(-c4ccc(C(=O)Nc5cc(C(F)(F)F)ccn5)cc4)c4c(N)nccn34)C2)C1 (stereo partly drawn) [Example 89, (R)-4-(8-amino-3-(1-(3-isopropylcyclobutanecarbonyl)piperidin-3-yl)imidazo[1,5-a]pyrazin-1-yl)-N-(4-(trifluoromethyl)pyridin-2-yl)benzamide]"

# Same assay, conditions: read-out: EC50 Btk activity values - Assay Method A; IMAP-FP, 60 min pre-incubation, 5 μM ATP; class 100-1000 is given as ≧100 nM-<1 μM
row,SMILES,pEC50
1,"COCCOCCOCCOCCC(=O)N1CCC[C@@H](n2nc(-c3ccc(C(=O)Nc4cc(C(F)(F)F)ccn4)cc3)c3c(N)ncnc32)C1 [Example 264, (R)-4-(1-(1-2,5,8,11-tetraoxatetradecanepiperidin-3-yl)-4-amino-1H-pyrazolo[3,4-d]pyrimidin-3-yl)-N-(4-(trifluoromethyl)pyridin-2-yl)benzamide]",> 8.00
2,"CCC(=O)N1C[C@H](c2nc(-c3ccc(C(=O)Nc4ccccn4)cc3)c3c(N)nccn23)CC[C@@H]1C (relative stereo) [Example 207, 4-(8-amino-3-((cis)-6-methyl-1-propionylpiperidin-3-yl)imidazo[1,5-a]pyrazin-1-yl)-N-(pyridin-2-yl)benzamide, TFA salt]",> 8.00

# The next lines start with the values.
row,pEC50,SMILES
1,> 8.00,"Nc1nccn2c([C@@H]3CCCN(CC4CCOC4)C3)nc(-c3ccc(C(=O)Nc4cc(C(F)(F)F)ccn4)cc3)c12 (stereo partly drawn) [Example 142, 4-(8-amino-3-((3R)-1-((tetrahydrofuran-3-yl)methyl)piperidin-3-yl)imidazo[1,5-a]pyrazin-1-yl)-N-(4-(trifluoromethyl)pyridin-2-yl)benzamide, TFA salt]"
2,> 8.00,"Nc1nccn2c(N3CCCC(C(=O)N4CCCC4)C3)nc(-c3ccc(C(=O)Nc4cc(C5CC5)ccn4)cc3)c12 (stereo not shown) [Example 247, 4-(8-amino-3-(3-(pyrrolidine-1-carbonyl)piperidin-1-yl)imidazo[1,5-a]pyrazin-1-yl)-N-(4-cyclopropylpyridin-2-yl)benzamide, TFA salt]"
3,> 8.00,"C[C@H]1CC[C@@H](c2nc(-c3ccc(C(=O)Nc4cc(C(F)(F)F)ccn4)cc3)c3c(N)nccn23)CN1C(=O)C1CCCO1 (relative stereo) [Example 194, 4-(8-amino-3-((cis)-6-methyl-1-(tetrahydrofuran-2-carbonyl)piperidin-3-yl)imidazo[1,5-a]pyrazin-1-yl)-N-(4-(trifluoromethyl)pyridin-2-yl)benzamide, TFA salt]"
4,> 8.00,"Nc1nccn2c(N3CCCC(C(=O)NC4CC(F)(F)C4)C3)nc(-c3ccc(C(=O)Nc4cc(C(F)(F)F)ccn4)cc3)c12 (stereo not shown) [Example 226, 1-(8-amino-1-(4-(4-(trifluoromethyl)pyridin-2-ylcarbamoyl)phenyl)imidazo[1,5-a]pyrazin-3-yl)-N-(3,3-difluorocyclobutyl)piperidine-3-carboxamide, TFA salt]"
5,> 8.00,"Nc1nccn2c1c(-c1ccc(C(=O)Nc3cc(C(F)(F)F)ccn3)cc1)nc2[C@H]1CC[C@H](O)CC1 [Example 2, 4-(8-amino-3-((trans)-4-hydroxycyclohexyl)imidazo[1,5-a]pyrazin-1-yl)-N-(4-(trifluoromethyl)pyridin-2-yl)benzamide]"

# Target: hBTK (full-length BTK, 6HIS-tag cleaved) (Homo sapiens (Human), UniProt Q06187)
# Experiment: BTK enzymatic activity, LANCE TR-FRET assay (Assay Method C)
# Format: biochemical
# Conditions: LANCE TR-FRET, 50 pM hBTK, 25 μM ATP; class 100-1000 is given as ≧100 nM-<1 μM; read-out: IC50 Btk activity values - Assay Method C
# Chain of hBTK (full-length BTK, 6HIS-tag cleaved) (Q06187 whole entry): as above
row,SMILES,pIC50
1,"CC1(C(=O)N2CCC[C@@H](c3nc(-c4ccc(C(=O)Nc5ncns5)cc4)c4c(N)nccn34)C2)COC1 [Example 368, 4-(8-amino-3-{(3R)-1-[(3-methyloxetan-3-yl)carbonyl]piperidin-3-yl}imidazo[1,5-a]pyrazin-1-yl)-N-1,2,4-thiadiazol-5-ylbenzamide]",7.00 to 8.00
2,"Nc1ncc(Cl)n2c([C@H]3CN(C(=O)C4(O)CC4)CCO3)nc(-c3ccc(C(=O)Nc4cc(C(F)(F)F)ccn4)cc3)c12 [Example 525, 4-(8-amino-5-chloro-3-{(2R)-4-[(1-hydroxycyclopropyl)carbonyl]morpholin-2-yl}imidazo[1,5-a]pyrazin-1-yl)-N-[4-(trifluoromethyl)pyridin-2-yl]benzamide]",> 8.00
3,"Cc1cnc(N)c2c(-c3ccc(C(=O)Nc4cc(C(F)(F)F)ccn4)cc3)nc([C@H]3CN(Cc4cnn(C)c4)CCO3)n12 [Example 509, 4-(8-amino-5-methyl-3-{(2R)-4-[(1-methyl-1H-pyrazol-4-yl)methyl]morpholin-2-yl}imidazo[1,5-a]pyrazin-1-yl)-N-[4-(trifluoromethyl)pyridin-2-yl]benzamide]",> 8.00
4,"CC1(C(=O)N2CCC[C@@H](c3nc(-c4ccc(C(=O)Nc5cc(C(F)(F)F)ccn5)cc4F)c4c(N)ncc(Cl)n34)C2)COC1 [Example 447, 4-(8-amino-5-chloro-3-{(3R)-1-[(3-methyloxetan-3-yl)carbonyl]piperidin-3-yl}imidazo[1,5-a]pyrazin-1-yl)-3-fluoro-N-[4-(trifluoromethyl)pyridin-2-yl]benzamide]",> 8.00
5,"Nc1ncc(Cl)n2c([C@H]3CNCCO3)nc(-c3ccc(C(=O)Nc4cc(C(F)(F)F)ccn4)cc3)c12 [Example 504, 4-{8-amino-5-chloro-3-[(2R)-morpholin-2-yl]imidazo[1,5-a]pyrazin-1-yl}-N-[4-(trifluoromethyl)pyridin-2-yl]benzamide]",> 8.00
6,"COCCC(=O)N1C[C@H](c2nc(-c3ccc(C(=O)Nc4cc(C(F)(F)F)ccn4)c(F)c3)c3c(N)nccn23)CC[C@@H]1C [Example 392, 4-{8-amino-3-[(3R,6S)-1-(3-methoxypropanoyl)-6-methylpiperidin-3-yl]imidazo[1,5-a]pyrazin-1-yl}-2-fluoro-N-[4-(trifluoromethyl)pyridin-2-yl]benzamide]",> 8.00
7,"CC1(C(=O)N2CCC[C@@H](c3nc(-c4ccc(C(=O)Nc5cc(C#N)ccn5)cc4)c4c(N)ncc(Cl)n34)C2)COC1 [Example 445, 4-(8-amino-5-chloro-3-{(3R)-1-[(3-methyloxetan-3-yl)carbonyl]piperidin-3-yl}imidazo[1,5-a]pyrazin-1-yl)-N-(4-cyanopyridin-2-yl)benzamide]",> 8.00
8,"Nc1ncnc2c1c(-c1ccc(C(=O)Nc3cc(C(F)(F)F)ccn3)cc1)nn2[C@@H]1CCCc2[nH]ncc21 [Example 554, 4-{4-amino-1-[(4R)-4,5,6,7-tetrahydro-1H-indazol-4-yl]-1H-pyrazolo[3,4-d]pyrimidin-3-yl}-N-[4-(trifluoromethyl)pyridin-2-yl]benzamide, TFA salt]",7.00 to 8.00

# More lines, now with the values ahead:
row,pIC50,SMILES
1,> 8.00,"Nc1nccn2c(C3CCC(C(F)(F)F)N(C(=O)C4CC4)C3)nc(-c3ccc(C(=O)Nc4cc(C(F)(F)F)ccn4)cc3F)c12 (stereo not shown) [Example 399, 4-{8-amino-3-[1-(cyclopropylcarbonyl)-6-(trifluoromethyl)piperidin-3-yl]imidazo[1,5-a]pyrazin-1-yl}-3-fluoro-N-[4-(trifluoromethyl)pyridin-2-yl]benzamide]"
2,> 8.00,"Nc1nccn2c([C@H]3CN(C(=O)CO)CCO3)nc(-c3ccc(C(=O)Nc4cc(C(F)(F)F)ccn4)cc3)c12 [Example 517, 4-{8-amino-3-[(2R)-4-(hydroxyacetyl)morpholin-2-yl]imidazo[1,5-a]pyrazin-1-yl}-N-[4-(trifluoromethyl)pyridin-2-yl]benzamide]"
3,> 8.00,"Nc1nccn2c([C@H]3CN(C(=O)C4CC4)CCO3)nc(-c3ccc(C(=O)Nc4cc(C(F)(F)F)ccn4)cc3F)c12 [Example 512, 4-{8-amino-3-[(2R)-4-(cyclopropylcarbonyl)morpholin-2-yl]imidazo[1,5-a]pyrazin-1-yl}-3-fluoro-N-[4-(trifluoromethyl)pyridin-2-yl]benzamide, TFA salt]"
4,> 8.00,"CC1(C(=O)N2CCC[C@@H](c3nc(-c4ccc(C(=O)Nc5cc(C(F)(F)F)ccn5)cc4)c4c(N)ncc(C#N)n34)C2)COC1 [Example 373, (R)-4-(8-amino-5-cyano-3-(1-(3-methyloxetane-3-carbonyl)piperidin-3-yl)imidazo[1,5-a]pyrazin-1-yl)-N-(4-(trifluoromethyl)pyridin-2-yl)benzamide]"
